Experimental data from patent US8507459B2, “Use of adenosine aspartate for the preparation of pharmaceutical products for the treatment of liver cancer” (Universidad Nacional Autonnoma de Mexico, priority 2007, dated 2013).

Tests used:
[1] = tested on: preneoplastic lesions in rat liver; test: Resistant hepatocyte model, 25 days, histochemical GGT staining of liver sections (Example 2); assay type: in vivo
Method: (§1) For the experimental phase in its first stage, male rats of the Fisher 344 strain were used, having 180 to 200 grams body weight, which were bred and kept in an Animal Breeding and Experimentation Unit of the Advanced Research and Studies Center, in a controlled environment with 12-hour cycles of light/darkness at a temperature of 23° C., in hygiene conditions and with free access to food and water. The preneoplastic lesion outgrowth in the liver was induced to the rats by using the resistant hepatocyte model (Semple-Roberts E, Hayes M A, Armstrong D, Becker R A, Racz W J, and Farber E. (1987) Alternative methods of selecting rat hepatocellular nodules resistant to 2-acetylaminofluorence. Int, J. Cancer. 40:643-6451) modified by our research group (Carrasc-Legleu C E, Marquez-Rosado L, Fattel-Fazenda S, Arce-PopocaE, Pérez-Carreón JI, VIIIa-Treviño S. (2004) Chemoprotective effect of caffeic acid phenethyl ester on promotion in a medium-term rat hepatocarcinogenesis assay. Int J. Cancer. 108:488-92).
On days 7, 8, and 9 after the beginning, a dose of 20 mg/kg of weight of 2-acetylaminofluorene (hereinafter called as 2AAF) was administered as carcinogen promoter, and on day 10 after the beginning, rats underwent a partial hepatectomy (HP) of 70% of hepatic mass (the administration of these products along with the hepatectomy is taken into consideration as the entire treatment for this experiment). Lastly, the rats were sacrificed at day 25.
In order to show the beneficial effect of adenosine aspartate in preneoplastic lesions, 6 different experimental groups were designed, as shown in FIG. 2.
The first group (TC), having 8 rats, was administered with the entire treatment; this group was used as positive control of the preneoplastic lesion outgrowth. The second group (IFC-1), having 8 animals, was administered with a pharmacologically effective dose of adenosine aspartate, which for this case, was 50 mg/kg of body weight dissolved in a physiological saline solution, pH 7.4 with 0.5% carboxymethyl-cellulose, replacing DEN carcinogen primer. The third group (IFC-P), having 8 animals, was administered with a pharmacologically effective dose of adenosine aspartate, which for this case, was 50 mg/kg of body weight dissolved in a physiological saline solution, pH 7.4 with 0.5% carboxymethyl-cellulose, replacing 2-AAF carcinogen promoter. In the fourth group (IFC-IP), with 7 animals, both the DEN carcinogen primer and the 2AAF carcinogen promoter were substituted by adenosine aspartate in pharmacologically effective doses, which in this case, was 50 mg/kg of body weight dissolved in a physiological saline solution, pH 7.4 with 0.5% carboxymethyl-cellulose. The fifth group (C-2AAF), having 6 animals, was administered with 2AAF only, being used as control of the administration of adenosine aspartate at the beginning of the second group (IFC-I. Finally, the sixth group(C-DEN), having 7 animals, which received DEN product only, was used as control of the administration of adenosine aspartate in the promotion of group 3 (IFC-P).
When ending the cycle, all groups underwent a partial hepatectomy. […] 17(8):517-526.) Briefly, sections were set in absolute ethanol for 10 min at −20° C.; subsequently, they were treated with a solution that contains 125 μg/ml of γ-glutamil-4-methoxi-2-naphthylamide (GMNA), 0.5 mg/ml of glycyl-glycine and 0.5 mg/ml of Fast Blue in 100 mM of Tris base and they were incubated for 30 minutes at room temperature; finally, they were washed with saline solution, the precipitated were set with 100 mM cupric sulfate solution. All reagents acquired from Sigma Chemical Co. in St Louis, Mo., USA. The enzyme activity was expressed in areas stained with dark red color. […]

alpha-fetoprotein = conditions: cirrhotic patients with slightly high levels; cited from earlier work
[2] = tested on: preneoplastic lesions in rat liver; test: Resistant hepatocyte model, adenosine aspartate given after cancer induction, sacrifice at month 12 (Example 1); assay type: in vivo
Method: as §1
As can be observed in this figure, this second experiment (IFC) consisted first in administering by intraperitoneal route, one single dose of 200 mg/kg of weight of DEN as carcinogen primer. Additionally, on days 7, 8, and 9 after the beginning, a dose of 20 mg/kg of weight of 2AAF was administered as carcinogen promoter, and on day 10 after the beginning, rats underwent an HP. […]

cirrhosis of the liver = conditions: cited from earlier work
[3] = group IFC-I: adenosine aspartate 50 mg/kg as primer replacing DEN, day 25
[4] = group IFC-IP: adenosine aspartate 50 mg/kg as primer and promoter replacing DEN and 2AAF, day 25
[5] = group IFC-P: adenosine aspartate 50 mg/kg as promoter replacing 2AAF, day 25

adenosine aspartate
effect over the preneoplastic lesion outgrowth compared with respective control groups ([1]; as primer (IFC-I) or as promoter (IFC-P), vs C-2AAF and C-DEN): no effect
average of positive GGT foci/cm^2 regarding the control group with the entire treatment (TC = 100%) [1, 3]: 1.3%
positive GGT area regarding the control group with the entire treatment (TC = 100%) [1, 3]: 0.4%
positive GGT arborescences in liver ([1]; group IFC-I: as primer): some livers presented positive GGT arborescences
number of positive GGT foci/cm^2 regarding the control group with the entire treatment (TC = 100%) [1, 4]: 0.2%
positive GGT area regarding the control group with the entire treatment (TC = 100%) [1, 4]: 0.08%
development of preneoplastic lesions ([1]; group IFC-IP: as primer and as promoter): no preneoplastic lesions were developed
average of positive GGT foci/cm^2 regarding the control group with the entire treatment (TC = 100%) [1, 5]: 7.1%
positive GGT area regarding the control group with the entire treatment (TC = 100%) [1, 5]: 4.6%
positive GGT arborescences and preneoplastic lesions in liver ([1]; group IFC-P: as promoter): positive GGT arborescences were not observed but small preneoplastic lesions were observed
alterations (number and area) compared with control groups C-2AAF and C-DEN ([1]; groups IFC-I and IFC-P): lower in number as well as in area
serum levels of alpha-fetoprotein (alpha-fetoprotein): reduces serum levels of alpha-fetoprotein
effect on already installed preneoplastic lesions ([2]; 60 mg/kg every 3 days from month 8 until month 12): reversal effect
alterations of cancer or preneoplastic lesions ([2]; administered after a product used to induce cancer, 60 mg/kg every 3 days from month 8): no suggestive alterations of cancer or preneoplastic lesions were present
accumulation of collagen (cirrhosis of the liver): reducing the accumulation of collagen
